Where “and” joins values, the source holds several entries; their conditions need not be identical. Identical values can stand only once.
Legend:
Format in all cases: cell-based, human
[1] = system: control IMR90 ER:STOP cells; assay: Cell survival assay using crystal violet staining, OIS, control cells; parameters: % Cell Survival: concentration or dose not given beside the values
Description: (§1) Equal numbers of control and senescent cells were plated at high density on multiwell plates just before senolytic treatment addition. After treatment, cells were fixed on 0.5% glutaraldehyde (Sigma) and then dried at RT overnight. Then, wells were stained with crystal violet solution for 3 h, washed and dried. Once they were completely dry, the plates were scanned for records. Quantification was performed extracting the staining with 1% acetic acid and measuring the final solution by absorbance at 595 nm.

[2] = system: Na+/K+ ATPase pump (intracellular K+) in senescent IMR90 ER:RAS cells; assay: Intracellular K+ determination with Asante staining, OIS; conditions: FIG 4E, ER:RAS cells
Description: Cells were cultured for control and senescent phenotype and then treated with the senolytics oleandrin, ouabain and periplocin at 10 nM for 72 h. Asante (Asante Potassium Green-2 AM, abcam ab142806) was added to the culture 30 min before fixation, following manufacturer instructions. DAPI staining was done before image acquisition on Nikon TI2 microscope (20x). Image analysis was performed using ImageJ 1.53k for setting intensity threshold and measuring mean intensity.

[3] = system: caspase 3/7 activity in senescent IMR90 ER:RAS cells; assay: Caspase 3/7 activity assay; parameters: Caspase 3/7 activity time course (SUP FIG 9F) / Caspase 3/7 activity time course (SUP FIG 9F exp not shown): unit not given here; conditions: for Caspase 3/7 activity time course (SUP FIG 9F) / Caspase 3/7 activity time course (SUP FIG 9F exp not shown): ER:RAS cells; for Caspase 3/7 activity time course (SUP FIG 9F exp not shown): second experiment, data not shown
Description: IMR90 ER:STOP and IMR90 ER:RAS cells were cultured with 100 nM 4-OHT for 5 days. Cell were then plated in a multiwell plate at high density. Once cells were attached, Caspase 3/7 probe (C10423 Invitrogen) and senolytic drugs, oleandrin, ouabain and periplocin at 10 nM, were added to the media and cultured for 36 h. Time lapse imaging was recorded every hour on a Leica AF6500 microscope (10x). ImageJ 1.53k was used for positive cell counting.

[4] = system: A549 cells treated with 100 μM etoposide; assay: Cell survival assay using crystal violet staining, TIS, senescent cells; conditions: Etoposide-treated (senescent) cells; Control DMSO = 100; single replicates (SUP FIG 9E)
Description: Equal numbers of control and senescent cells were plated at high density on multiwell plates just before senolytic treatment addition. After treatment, cells were fixed on 0.5% glutaraldehyde (Sigma) and then dried at RT overnight. Then, wells were stained with crystal violet solution for 3 h, washed and dried. Once they were completely dry, the plates were scanned for records. Quantification was performed extracting the staining with 1% acetic acid and measuring the final solution by absorbance at 595 nm. […]
cells per condition is indicated. (d) Cell survival assay measuring the senolytic effect in lung cancer senescent cells. The panels show a representative crystal violet staining of tissue culture dishes of confluent A549 cells treated with 100 μM etoposide and control A549 cells, all treated with 10 nM oleandrin, ouabain and periplocin, and DMSO as vehicle control for 72 hours as indicated. (e) Graph representing the cell survival by quantification of the crystal violet staining of the experiment described in (d), as described in Methods. Data represented as individual datapoints, and bars and error bars representing the mean ± SEM of 14 independent experiments. Statistical analysis was performed using a one-way ANOVA (Tukey’s test) for multiple comparisons. […]
Scale bars represent 100 μm. ns = not significant, * = p < 0.05, ** = p < 0.01, *** = p < 0.001, **** = p < 0.0001. Source data are provided as a Source Data file.

[5] = system: IMR90 cells at passage 27 (replicative senescence); assay: Cell survival assay using crystal violet staining, replicative senescence; parameters: % Cell Survival: concentration or dose not given beside the values; conditions: FIG 4C; Replicative Senescence (RS) cells; individual replicate values, Control DMSO = 100
Text: IMR90 (CCL-186) human foetal lung fibroblasts and A549 (CCL-185) human lung adenocarcinoma cells were obtained from the American Type Culture Collection (ATCC, Manassas, VA). The cell lines were confirmed to be mycoplasma negative (Lonza MycoAlert, cat #LT07-118). IMR90 ER:RAS is a derivative of IMR90 cells expressing a switchable version of oncogenic H-Ras[84]. IMR90 ER:RAS and A549 cells were maintained in Dulbecco’s Modified Eagle Medium (DMEM, ThermoFisher) supplemented with foetal bovine serum (10%), L-glutamine (2 mM, ThermoFisher), and antibiotic-antimycotic solution (1%, ThermoFisher) and incubated under standard tissue culture conditions (37 °C and 5% CO2). For induction of the senescent phenotype, IMR90-ER:RAS cells were cultured in hydroxytamoxifen (4-OHT) (Sigma) added media at 100 nM final concentration. IMR90 were kept in culture for over 27 passages for replicative senescence. Cells were tested for mycoplasma on a regular basis.
as §1

[6] = system: proliferating IMR90 cells; assay: BrdU incorporation proliferation assay
Description: 5-bromo-2′-deoxyuridine (BrdU) incorporation was used to measure the number of cells actively replicating DNA. Cells were incubated with 10 μM BrdU (85811, Sigma) for 18 h. After that, cells were fixed with 4% Paraformaldehyde, permeabilised, blocked and then stained for immunofluorescence using BrdU primary antibody (555627 BD Pharmigen), Alexa fluor secondary for detection, and DAPI staining for cell counting. Acquisition was done with a Nikon TI2 microscope and analysis was performed with ImageJ for cell counting.

[7] = system: NOXA mRNA in senescent IMR90 ER:RAS cells; assay: NOXA mRNA expression by RT-qPCR, OIS; conditions: ER:RAS cells, 10 nM; relative to ER:STOP DMSO = 1; individual replicate values
Description: Total RNA was isolated using RNAeasy kit (Quiagen). cDNA was generated with reverse transcriptase iScript (Bio-Rad). RT-qPCR was performed using SYBR Select Master Mix (Applied Biosystems) in OneStepPlus detection system (Applied Biosystems). Oligos for amplification were: NOXA Fw-[…] and Rv-[…]; b-ACTIN Fw-[…] and Rv-[…]; IL1a Fw-[…] and Rv- […]; IL1b Fw-[…] and Rv- […]; IL8 Fw-[…] and Rv-[…]; p16 Fw-CGGTCGGAGGCCGATCCAG and Rv- […]; p21Fw-[…] and Rv- […].

Structure (SMILES): CO[C@H]1C[C@H](O[C@H]2CC[C@]3(C)[C@H]4CC[C@]5(C)[C@@H](C6=CC(=O)OC6)CC[C@]5(O)[C@@H]4CC[C@]3(O)C2)O[C@H](C)[C@H]1O[C@@H]1O[C@H](CO)[C@@H](O)[C@H](O)[C@H]1O [Periplocin, periplocin]
- % Cell Survival ([1]; FIG 4B, ER:STOP cells, individual replicate values, ER:STOP DMSO = 100): 103.3% and 93.7% and 87.3% and 112.7% and 104.8% and 100.7% and 97.3% and 88.4% and 100.5% and 85.6% and 102.9% and 98.7%
- Mean (cell survival, Tukey test details) ([1]; FIG 4B, ER:STOP cells, mean of n=12 as fraction of STOP DMSO = 1): 0.9799
- cytotoxic activity (crystal violet), in words ([1]; IMR90-ER:STOP proliferating control cells, 10 nM, 72 h): no cytotoxic activity
- Asante Mean intensity ([2]; individual replicate values): 75.6 and 74 and 75.4 and 73.1 and 78 and 73 and 65.7
- Mean (Asante Mean intensity, Tukey test details) ([2]; mean of n=7): 73.54
- Caspase 3/7 activity time course (SUP FIG 9F) ([3]; 01:00:00 hours): 1.7
- Caspase 3/7 activity time course (SUP FIG 9F exp not shown) ([3]; 01:00:00 hours): 0.05
- Caspase 3/7 activity time course (SUP FIG 9F) ([3]; 05:00:00 hours): 2
- Caspase 3/7 activity time course (SUP FIG 9F exp not shown) ([3]; 05:00:00 hours): 0.2
- Caspase 3/7 activity time course (SUP FIG 9F) ([3]; 10:00:00 hours): 2.7
- Caspase 3/7 activity time course (SUP FIG 9F exp not shown) ([3]; 10:00:00 hours): 1.2
- Caspase 3/7 activity time course (SUP FIG 9F) ([3]; 15:00:00 hours): 2.7
- Caspase 3/7 activity time course (SUP FIG 9F exp not shown) ([3]; 15:00:00 hours): 1.2
- Caspase 3/7 activity time course (SUP FIG 9F) ([3]; 20:00:00 hours): 3
- Caspase 3/7 activity time course (SUP FIG 9F exp not shown) ([3]; 20:00:00 hours): 2.55
- Caspase 3/7 activity time course (SUP FIG 9F) ([3]; 1 day, 1:00:00): 3.5
- Caspase 3/7 activity time course (SUP FIG 9F exp not shown) ([3]; 1 day, 1:00:00): 3.9
- Caspase 3/7 activity time course (SUP FIG 9F) ([3]; 1 day, 6:00:00): 4
- Caspase 3/7 activity time course (SUP FIG 9F exp not shown) ([3]; 1 day, 6:00:00): 6.15
- Caspase 3/7 activity time course (SUP FIG 9F) ([3]; 1 day, 11:00:00): 4.8
- Caspase 3/7 activity time course (SUP FIG 9F exp not shown) ([3]; 1 day, 11:00:00): 8.35
- Casp3/7 activity (percentage of green fluorescent cells) ([3]; ER:RAS, 100 nM 4OHT, 10 nM compound, 35 h): 6.2%
- % Cell Survival [4]: 78.5% and 85.2% and 87.1% and 66.7% and 80.4% and 88.8% and 86.5% and 120% and 114.9% and 68.8% and 88.3% and 87.7% and 111.9% and 81.2%
- % Cell Survival [5]: 127.6% and 99.2% and 95.4% and 100.9% and 115.7% and 129.6% and 84.9% and 94.7% and 133.6% and 88.7% and 125.7% and 118.8%
- % BrdU positive cells, mean (Test details, Mean 2) ([6]; IMR90 cells, n 4): 68.52%
- % BrdU positive cells ([6]; IMR90 cells, single replicates (SUP FIG 9G)): 63.29% and 64.13% and 67.53% and 79.11%
- proliferation by BrdU incorporation, in words ([6]; proliferating IMR90 cells, 10 nM): none of the cardiac glycosides induced unwanted changes in proliferation
- NOXA mRNA expression [7]: 6.84 and 6.41 and 10.09 and 3.28

From paper PMC10257182, “Discovery of senolytics using machine learning” (Nature Communications, 2023)
